Consider one compound from patent US10842845B2, “Oxytocin improves treatment of obstructive sleep apnea” (THE GEORGE WASHINGTON UNIVERSITY, priority 2014, dated 2020).

One test deals with rats. To be noted: acute icy infusion of oxytocin; cited from earlier work.
The test system of test [1] is Patients recently diagnosed with OSA. Kind of test: Intranasal oxytocin in patients recently diagnosed with OSA (polysomnography, sleep quality score). It is filed as in vivo, human. The note with it: 40 IU oxytocin intranasally about one hour prior to sleeping. Here is the method: Patients recently diagnosed with OSA were recruited to test the effect of oxytocin administration on heart rate, apnea-hypopnea index, oxygen saturation, apnea duration, arousal index etc. The study is approved by the FDA (IND #120989). Patients were administered 40 IU of oxytocin intranasally about one hour prior to sleeping.
The following eight outcomes were compared in the same patients prior to and after administration with oxytocin: • basal heart rate before sleep (primary outcome) • mean changes in heart rate with apneic and hypopneic events (primary outcome) • apnea-hypopnea index (secondary outcome) • percentage of time spent by the patient with oxygen saturations: >90%, >80% but <90%, and <80% (secondary outcome) • duration of apneas • oxygen desaturation during apneas (expressed as adverse desaturations in percent oxygen) • numbers of arousals (expressed per hour) • sleep quality
The following information was recorded for each patient before and after the use of intranasal oxytocin:
• a. Basal heart rate before sleep • b. Apnea-hypopnea index • c. Mean changes in heart rate with apneic and hypopneic events • d. Percentage of time spent by the patient with oxygen saturations: >90%, >80% but <90%, and <80%. • e. Duration of apneas • f. Oxygen desaturation during apneas (expressed as adverse desaturations in percent oxygen) • g. Numbers of arousals (expressed per hour) • h. Sleep quality 3. Standard of care sleep study data using PSG: Polysomnography (PSG) monitors many body functions during sleep, including brain (EEG), eye movements (EOG), muscle activity or skeletal muscle activation (EMG), heart rhythm (ECG), respiratory airflow, thoracic and abdominal respiratory effort, body position, limb movement, and oxygen saturation using pulse oximetry. Recording and scoring was done according to the standards set by the American Academy of Sleep Medicine. 4. Sleep quality score: Patients were asked to rank their responses using the scale of 1-5 for a set of empirical factors: • 1—Strongly disagree • 2—Slightly disagree • 3—Neither agree nor disagree • 4—Slightly agree • 5—Strongly agree Empirical Factors: • I feel more refreshed than usual this morning • My quality of sleep last night was better than usual • I slept deeper than usual last night • I woke up fewer times than usual last night • I slept longer than usual last night • I feel better overall than usual this morning

The mark [2] stands for this setting: same patients prior to and after administration.

Entries after “also recorded” stand apart in the source; their conditions may differ.

As to `CC[C@H](C)[C@@H]1NC(=O)[C@H](Cc2ccc(O)cc2)NC(=O)[C@@H](N)CSSC[C@@H](C(=O)N2CCC[C@H]2C(=O)N[C@@H](CC(C)C)C(=O)NCC(N)=O)NC(=O)[C@H](CC(N)=O)NC(=O)[C@H](CCC(N)=O)NC1=O` [oxytocin], in the test on rats, the “high-frequency activity in the electroencephalogram (EEG) within non-REMS” value is “augmented”; the “non-REMS and REMS” value was “transient reduction”; the sleep onset latency result is “delayed”. In addition, in test [1] (setting [2]), the duration of apnea entry is “reduces”, the number of arousals/hour entry was “decreases; also recorded: reduces” and the oxygen desaturation result is “reduces”. The “sleep quality or sleep satisfaction” value in test [1] (score on scale of 1-5 for empirical factors) is “improves”.
